According to PMC5413848, “Optimization of intestinal microsomal preparation in the rat: A systematic approach to assess the influence of various methodologies on metabolic activity and scaling factors” (Biopharmaceutics & Drug Disposition, 2017):
Read-outs that look alike come from different tables or passages of the source. One block for each molecule: values may come before it.

Legend:
[1] = Nonspecific protein binding in rat intestinal microsomes (96-well micro-equilibrium dialysis)
Protocol: Nonspecific protein binding was determined in microsomes (1 mg/ml) using high throughput 96‐well micro‐equilibrium dialysis methodology (HTDialysis, LLC, Gales Ferry, CT, USA). These experiments used dialysis membrane strips with 12–14 kDa molecular mass cut‐off (HTDialysis). The microsomes were constituted in 0.1 M phosphate buffer (pH 7.4). The final concentrations of the test compounds was 1 μM. Microsomes containing the test compound were aliquoted into donor wells in triplicate, and buffer placed in the acceptor wells. The plate was incubated at 37°C and left to equilibrate on a plate shaker (450 rpm) for 4 h. Samples from both the acceptor and donor sides of the membrane were then transferred to 96‐well plates and quenched in acetonitrile containing internal standard (AZ1). The same sample preparation and LC–MS/MS methodology was used as described for the microsomal incubations. Compound MS transitions and retention times are reported in Supplemental material Table 3. Fuinc was calculated as the ratio of acceptor to donor both normalized for internal standard as described previously 41. Correction for protein binding for depletion experiments undertaken at 0.5 mg/ml were made using Equation (4).
(4) fumic,2=1/[P]mic,2/Pmic,1×1−fumic,1/fumic,1+1
where mic,1 denotes 1 mg/ml and mic,2 is 0.5 mg/ml.

[2] = in vitro; conditions: for microsomal CLint at 1 μM: Han-Wistar, rat, in-house combined cofactors
Protocol: (§1) Microsomes prepared previously via the optimized method (preparation method 8) were combined to form pool 1 (n = 9 rats). A second set of three preparations was combined to form pool 2 (n = 9 rats). Intestinal microsomes were also prepared from intestinal tissue flash‐frozen in tubes on arrival in the laboratory and kept at −80°C until thawing on ice on the morning of preparation, (n = 3 occasions of n = 3 samples). In addition, for comparative purposes microsomes were also prepared from scraped intestinal tissues. Microsomes were prepared after cutting along the length of intestine and gently scraping the intestinal epithelial with a glass microscope slide (n = 1 occasion, n = 3 samples). Commercially available pooled intestinal microsomes were also used as a comparator to those produced in‐house. […] The microsomes were stored at −80°C prior to experiments.
The microsomes prepared from the final optimized preparation method (method 8) were measured for CYP content on the day of preparation prior to storage. These microsomes (n = 3 samples prepared on n = 3 separate occasions) were subsequently thawed on ice and pooled for pool 1. The pool 1 microsomes were then assayed for testosterone and 4‐NP metabolite formation. Additional intestinal microsomes were created using the identical methodology with the same number of rat intestinal samples (n = 3 samples prepared on n = 3 occasions) and assayed for testosterone and 4‐NP metabolite formation as well as for CYP content on the day of preparation before storage. The microsomes from this second set of preparations were then thawed and pooled to form pool 2.
(§2) Midazolam and 7‐hydroxycoumarin were both incubated at 1 mg/ml and 0.5 mg/ml. The microsomes were incubated on ice with alamethacin (50 μg/mg) for 15 min. […] The samples were quenched with ice cold acetonitrile (3:1 quench to sample) containing the internal standard (AZ1). The total incubation time was 40 min. Quenched samples were stored overnight at −20°C. The following day, the samples were diluted with 200 μl UPH2O, and spun at 3000 rpm (Sorvall legend RT centrifuge) for 15 min, and 200 μl of supernatant taken for analysis.

[3] = Substrate depletion in commercial Han Wistar rat intestinal microsomes, combined or individual CYP and UGT cofactors; conditions: for microsomal CLint at 1 μM: male, Han Wistar, rat, pH 7.4, CL int,u, Commercial Han Wistar pool
Protocol: as §1, §2

[4] = In vitro-in vivo extrapolation of rat intestinal unbound intrinsic clearance (CL int,u,gut); format: in vitro ADME; conditions: for CL int,u,gut, Combined in-house pools: mean of pool 1 and pool 2 CL int,u and scaling factors; for CL int,u,gut, Pool 1 Mean: pool 1, pool specific scaling factors; for CL int,u,gut, Pool 1 Mean / CL int,u,gut, Pool 2 Mean: threshold 0.01 l/h; for CL int,u,gut, Pool 2 Mean: pool 2, pool specific scaling factors
Source text: The CL int,u values were scaled to give CL int,u,gut using scaling factors for the corresponding microsomal pool (Eq. (5)). The use of scalars from the mean of both pools was also investigated, and was also used for scaling of commercial microsome CL int,u data.
(5) CLint,u,G=CLuint⋅MPPGI⋅Intestine Segment Weight

[5] = microsomes, pH 7.4, CL int,u, Pool 1
[6] = microsomes, pH 7.4, CL int,u, Pool 2
[7] = commercial Han Wistar microsomes, individual cofactors
[8] = CYP cofactors, 1 mg/ml, 1 μM compound, CYP cofactors only
[9] = Combined cofactors, 1 mg/ml, 1 μM compound, combined CYP and UGT cofactors
[10] = UGT cofactors, 1 mg/ml, 1 μM compound, UGT cofactors only
[11] = rat intestinal microsomes 1 mg/ml, compound 1 μM
[12] = rat intestinal microsomes, in-house pool 1, pH 7.4, CL int,u, Pool 1, pool 1, 1 mg/ml, 1 μM compound, CYP and UGT cofactors

SMILES: O=c1ccc2ccc(O)cc2o1 [7‐Hydroxycoumarin]
Predicted protein binding at 0.5 mg/ml from data measured at 1 mg/ml [1]: 1.00
Microsomal binding ([1]; rat, 4 h, 1 μM, pH 7.4): 0%
fuinc ([1]; rat, 4 h, 1 μM, pH 7.4): 1.00
microsomal CLint at 1 μM [2, 5]: 196 µL/min/mg
microsomal CLint at 1 μM [2, 6]: 264 µL/min/mg
Main route of elimination (CYP vs UGT cofactors) [3, 7]: glucuronidation
microsomal CLint at 1 μM [3, 8]: 0.9 µL/min/mg
microsomal CLint at 1 μM [3, 9]: 272 µL/min/mg
microsomal CLint at 1 μM [3, 10]: 327 µL/min/mg
CL int,u,gut, Mean Han Wistar commercial microsomes [4]: 0.07 L/h

SMILES: CN(C)CCC=C1c2ccccc2CCc2ccccc21 [Amitriptyline]
fuinc [1, 11]: 0.20
microsomal CLint at 1 μM [2, 12]: 24.3 µL/min/mg
microsomal CLint at 1 μM ([2]; rat intestinal microsomes, in-house pool 2, pH 7.4, CL int,u, Pool 2, pool 2, 1 mg/ml, 1 μM compound, CYP and UGT cofactors): 19.9 µL/min/mg
Main route of elimination (CYP vs UGT cofactors) [3, 7]: comparable
Agreement of additive individual cofactor CL int,u with combined cofactor CL int,u ([3]; commercial microsomes, eight compounds): outside 2‐fold range
microsomal CLint at 1 μM [3, 8]: 5.3 µL/min/mg
microsomal CLint at 1 μM [3, 9]: 23.8 µL/min/mg
microsomal CLint at 1 μM [3, 10]: 3 µL/min/mg
CL int,u,gut, Combined in-house pools [4]: 0.01 L/h
CL int,u,gut, Pool 1 Mean [4]: 0.01 L/h

SMILES: CC(C)NCC(O)COc1ccc(COCCOC(C)C)cc1 (stereo not shown) [Bisporolol]
fuinc [1, 11]: 0.89
CL int,u, in-house combined cofactors, Pool 1 ([2]; pool 1, 1 mg/ml, 1 μM compound, CYP and UGT cofactors): 5.4 µL/min/mg
CL int,u, in-house combined cofactors, Pool 2 ([2]; pool 2, 1 mg/ml, 1 μM compound, CYP and UGT cofactors): < 0.1 µL/min/mg
CL int,u,gut, Combined in-house pools [4]: 0.02 L/h
CL int,u,gut, Pool 1 Mean [4]: 0.01 L/h
CL int,u,gut, Pool 2 Mean [4]: 0.03 L/h

SMILES: CCCCNc1cc(C(=O)O)cc(S(N)(=O)=O)c1Oc1ccccc1 [Bumetanide]
fuinc ([1]; rat, 4 h, 1 μM, pH 7.4): 0.92

SMILES: O=C1CC2(CCCC2)CC(=O)N1CCCCN1CCN(c2ncccn2)CC1 [Buspirone]
microsomal CLint at 1 μM ([2]; microsomes, pH 7.4, CL int,u, Pool 1, pool 1, 1 mg/ml, 1 μM compound, CYP and UGT cofactors): 3.2 µL/min/mg
microsomal CLint at 1 μM ([2]; microsomes, pH 7.4, CL int,u, Pool 2, pool 2, 1 mg/ml, 1 μM compound, CYP and UGT cofactors): 1.4 µL/min/mg

SMILES: O=C(O)Cc1ccccc1Nc1c(Cl)cccc1Cl [Diclofenac]
fuinc ([1]; rat, 4 h, 1 μM, pH 7.4): 0.98

SMILES: COc1ccc([C@@H]2Sc3ccccc3N(CCN(C)C)C(=O)[C@@H]2OC(C)=O)cc1 [Diltiazem]
fuinc ([1]; rat, 4 h, 1 μM, pH 7.4): 0.85
microsomal CLint at 1 μM [2, 5]: 21.8 µL/min/mg
microsomal CLint at 1 μM [2, 6]: 26.7 µL/min/mg

SMILES: COc1ccc2c(c1)c(CC(=O)O)c(C)n2C(=O)c1ccc(Cl)cc1 [Indomethacin]
fuinc ([1]; rat, 4 h, 1 μM, pH 7.4): 0.88
microsomal CLint at 1 μM [2, 5]: 48.9 µL/min/mg
microsomal CLint at 1 μM [2, 6]: 62.4 µL/min/mg
CL int,u,gut, Mean Han Wistar commercial microsomes [4]: 0.22 L/h

SMILES: CC(C)Oc1ccc2c(=O)c(-c3ccccc3)coc2c1 [Ipriflavone]
Predicted protein binding at 0.5 mg/ml from data measured at 1 mg/ml ([1]; rat, 4 h, 1 μM, pH 7.4): 0.43
fuinc ([1]; rat, 4 h, 1 μM, pH 7.4): 0.28
microsomal CLint at 1 μM [2, 5]: 495 µL/min/mg
microsomal CLint at 1 μM [2, 6]: 416 µL/min/mg
Main route of elimination (CYP vs UGT cofactors) [3]: CYP mediated metabolism
microsomal CLint at 1 μM ([3]; microsomes, CYP cofactors): 59.1 µL/min/mg
microsomal CLint at 1 μM ([3]; microsomes, Combined cofactors): 72 µL/min/mg
microsomal CLint at 1 μM ([3]; microsomes, UGT cofactors): 7.3 µL/min/mg
CL int,u,gut, Mean Han Wistar commercial microsomes [4]: 0.05 L/h

Next, values leading:

fuinc ([1]; rat, 4 h, 1 μM, pH 7.4): 0.79
microsomal CLint at 1 μM [2, 5]: 31.9 µL/min/mg
microsomal CLint at 1 μM [2, 6]: 35.9 µL/min/mg
Main route of elimination (CYP vs UGT cofactors) [3, 7]: glucuronidation
microsomal CLint at 1 μM [3, 8]: 1.5 µL/min/mg
microsomal CLint at 1 μM [3, 9]: 15.2 µL/min/mg
microsomal CLint at 1 μM [3, 10]: 9.4 µL/min/mg
CL int,u,gut, Mean Han Wistar commercial microsomes [4]: 0.03 L/h
SMILES: CCCCC1=NC2(CCCC2)C(=O)N1Cc1ccc(-c2ccccc2-c2nnn[nH]2)cc1 [Irbesartan]

fuinc [1, 11]: 0.90
microsomal CLint at 1 μM [2, 12]: 7.6 µL/min/mg
CL int,u,gut, Combined in-house pools [4]: 0.01 L/h
CL int,u,gut, Pool 1 Mean [4]: 0.01 L/h
CL int,u,gut, Pool 2 Mean [4]: 0.01 L/h
SMILES: COc1ccc2[nH]c([S+]([O-])Cc3ncc(C)c(OC)c3C)nc2c1 (stereo not shown) [Omeprazole]

Microsomal binding ([1]; rat, 4 h, 1 μM, pH 7.4): 0%
fuinc ([1]; rat, 4 h, 1 μM, pH 7.4): 1.00
microsomal CLint at 1 μM [2, 5]: 3.9 µL/min/mg
microsomal CLint at 1 μM [2, 6]: 2.7 µL/min/mg
CL int,u,gut, Mean Han Wistar commercial microsomes [4]: 3.21 L/h
SMILES: CN1CCN(CC(=O)N2c3ccccc3C(=O)Nc3cccnc32)CC1 [Pirenzepine]

fuinc ([1]; rat, 4 h, 1 μM, pH 7.4): 0.06
SMILES: O=C(c1ccc(OCCN2CCCCC2)cc1)c1c(-c2ccc(O)cc2)sc2cc(O)ccc12 [Raloxifene]

fuinc ([1]; rat, 4 h, 1 μM, pH 7.4): 0.73
microsomal CLint at 1 μM [2, 5]: 23.8 µL/min/mg
microsomal CLint at 1 μM [2, 6]: 18.4 µL/min/mg
SMILES: CCCc1nn(C)c2c(=O)[nH]c(-c3cc(S(=O)(=O)N4CCN(C)CC4)ccc3OCC)nc12 [Sildenafil]

fuinc [1, 11]: 0.93
CL int,u,gut, Combined in-house pools [4]: 1.38 L/h
CL int,u,gut, Pool 1 Mean [4]: 1.08 L/h
CL int,u,gut, Pool 2 Mean [4]: 1.57 L/h
SMILES: CCC(C)(C)C(=O)O[C@H]1C[C@@H](C)C=C2C=C[C@H](C)[C@H](CC[C@@H]3C[C@@H](O)CC(=O)O3)[C@H]21 [Simvastatin]

fuinc [1, 11]: 0.32
Predicted protein binding at 0.5 mg/ml from data measured at 1 mg/ml ([1]; rat, 4 h, 1 μM, pH 7.4): 0.48
microsomal CLint at 1 μM ([2]; rat intestinal microsomes, in-house pool 1, pH 7.4, CL int,u, Pool 1, pool 1, incubated at 0.5 mg/ml (footnote b), 1 μM compound): 465 µL/min/mg
microsomal CLint at 1 μM ([2]; rat intestinal microsomes, in-house pool 2, pH 7.4, CL int,u, Pool 2, pool 2, incubated at 0.5 mg/ml (footnote b), 1 μM compound): 413 µL/min/mg
CL int,u,gut, Combined in-house pools [4]: 59.22 L/h
CL int,u,gut, Pool 1 Mean [4]: 37.77 L/h
CL int,u,gut, Pool 2 Mean [4]: 77.09 L/h
SMILES: C=CC[C@@H]1/C=C(\C)C[C@H](C)C[C@H](OC)[C@H]2O[C@@](O)(C(=O)C(=O)N3CCCC[C@H]3C(=O)O[C@H](/C(C)=C/[C@@H]3CC[C@@H](O)[C@H](OC)C3)[C@H](C)[C@@H](O)CC1=O)[C@H](C)C[C@@H]2OC [Tacrolimus]
